Experiments:
[1] = test system: normal human dermal fibroblasts; test: Type I collagen production by normal human dermal fibroblasts (ELISA, per unit protein); assay type: cell-based; details: for production amount of collagen (relative value, no sample = 100, per unit amount of protein): 1.5×10^−5 M, 48 hours culture, n=6, FIG. 1, t-test vs control; for Type I collagen amount (ng/μg protein) (average ± SD): 48 hours, n=6, control 8.91 ± 0.26, significant (<1%)
Method: Skin collagen enhancing activity of menaquinone-7 was compared with those of vitamin K1 and menaquinone-4, using normal human fibroblasts. A menaquinone-7 reagent (Wako Pure Chemical Industries, Ltd.) was used after purity validation by HPLC. The comparison was performed at a setting concentration of 1.5×10^−5 M, which is a maximum solubility of vitamin Ks in a cell culture system. Vitamin K1 (Wako Pure Chemical Industries, Ltd.) and menaquinone-4 (Sigma) were used after purity validation by HPLC.
Normal human dermal fibroblasts (manufactured by Kurabo Industries Ltd.) were inoculated on a 96-well microplate at a cell density of 2.0×10^4 cells per well using a Dulbecco's modified Eagle's medium (DMEM) (Sigma) containing 0.5% by weight of fetal bovine serum (FBS). The medium was replaced, 48 hours after the inoculation, by DMEM containing 0.5% by weight of FBS and menaquinone-7 in a concentration shown in Table 5. A test maximum concentration solution was prepared by dissolving menaquinone-7 in ethanol and diluting it 100 times with a DMEM containing 0.5% FBS. The testing method was confirmed to be valid using magnesium ascorbic acid phosphate (VC-PMg) as a positive control. The medium containing a sample was cultured for 48 hours, and the medium supernatant was collected and subjected to ELISA for measuring the amount of type I collagen. The cells were lysed in a 0.5% Triton X-100 solution, and the protein amount was measured.
A medium and a type I collagen solution for a standard curve were placed on each well of a high-absorption ELISA plate, and coating at 37° C. for 2 hours was performed, followed by blocking with a 1% bovine serum albumin (BSA) solution at 37° C. for 1 hour. Primary antibody reaction was performed using anti-human collagen type I antibody (rabbit) diluted with a 0.3% BSA solution at 37° C. for 1 hour. Secondary antibody reaction was performed using Histofine MAX-PO(R) (rabbit) diluted with a phosphate buffer at 37° C. for 1 hour. A phosphate-citrate buffer (0.1 M, pH 4.0) solution containing 0.3 mg/mL of 2,2′-azinobis(3-ethylbenzothiazoline-6-sulfonic acid)diammounium salt (ABTS) and 0.03% hydrogen peroxide was added thereto, followed by reaction for 20 min The absorbance of the reaction solution was measured at 405 nm with a microplate reader.
The type I collagen amount in the medium was determined from the standard curve prepared by measurement on the same ELISA plate, and the type I collagen amount per unit amount of protein was calculated by dividing the type I collagen amount in the medium by the total protein amount of the cells.
The test was performed at n=6 for each group containing a sample, and the results are each shown as an average +standard deviation. The statistical processing was performed by a Student t-test against the control group not containing the sample, and the symbol * indicates a significance level of less than 1%.
The collagen enhancing activities of menaquinone-7 for human dermal fibroblasts were investigated in the concentration range shown in Table 5. The test of each group containing a sample was performed at n=6, and the results are each shown as an average value. The statistical processing was performed by a Student t-test against the control group not containing the sample, and the symbol * indicates a significance level of less than 1%.

[2] = Vitamin K (MK-7) concentration in rat skin after feeding a menaquinone-7-containing diet; assay type: in vivo; details: Wistar rats, diet with menaquinone-7 150 μg/g, free feeding 90 days, average ± SD
Method: Wistar rats (male, 5-week old) were freely fed with purified feed AIN93G (manufactured by Oriental Yeast) for one week for habituation, and then separated into groups each consisting of three rats so that the total weight of each group was the same. Three rats in each group were freely fed with a rat standard diet (AIN93G) or a menaquinone-7-containing feed (menaquinone-7: 150 μg/g) composed of rat standard diet (AIN93G) and menaquinone-7 for 90 days. Then, vitamin K concentration in the skin was measured. Vitamin K was analyzed by high-performance liquid chromatography with post-column reduction using platinum black and fluorescence detection (Sato, et al., Biochim Biophys. Acta, 1622, 145-150, 2003).

skin collagen = test: Skin collagen amount in rats fed MK7-containing diets (Sircol Collagen Assay Kit); assay type: in vivo, Crl:CD(SD)(SPF) rats; details: 90 days; for Type I collagen amount (μg/mg wet skin weight) (average ± SD): MK7-free 38.43 ± 4.56, not significant; for Rate of increase of collagen (%): vs MK7-free diet group
Method: Four-week old male Crl:CD(SD)(SPF) rats were habituated after arrival till the start of administration, including one week for quarantine. During the quarantine and habituation, general conditions were observed every day, and the weights were measured on the first day (the day following the arrival), the third day, and the seventh day. The rats were separated into four groups each consisting of five rats so that the total weight of each group was the same.
Rats were freely fed for 90 days with any one of three types of menaquinone-7-containing feeds by adding menaquinone-7 to rat standard diet AIN93G: high MK7 diet (menaquinone-7: 45.4 μg/g diet), moderate MK7 diet (menaquinone-7: 15 μg/g diet), and low MK7 diet (menaquinone-7: 4.54 μg/g diet); or MK7-free diet.
The rats were subjected to fasting on the last day and then dissected. The hair at the abdomen region was carefully shaved with hair clippers, and the skin including the derm was sampled. The skin was cut into about 100 mg pieces and they were exactly weighed. The skin collagen amount was measured with a skin collagen measurement kit (trade name: Sircol Collagen Assay Kit, manufactured by Biocolor). Increased amounts of collagen in three groups fed with the diet containing MK7 were compared with that in the group fed with the MK7-free diet as a control. The statistical processing was performed by a Student t-test. A significance level P<0.05 was determined as to have significant difference. […] In the table, the symbol * means a significant difference.

CC(C)=CCC/C(C)=C/CC/C(C)=C/CC/C(C)=C/CC1=C(C)C(=O)c2ccccc2C1=O [Menaquinone-4, menaquinone-4, reference compound]
production amount of collagen (relative value, no sample = 100, per unit amount of protein) [1]: only menaquinone-7 significantly increased | production amount of collagen ([1]; 6.0×10^−5 M): did not increase at all

CC(C)=CCC/C(C)=C/CC/C(C)=C/CC/C(C)=C/CC/C(C)=C/CC/C(C)=C/CC/C(C)=C/CC1=C(C)C(=O)c2ccccc2C1=O [Menaquinone-7, menaquinone-7]
Type I collagen amount (ng/μg protein) (average ± SD) ([1]; 0.5 × 10^−6M): 10.66 ± 0.48 ng/μg protein | Type I collagen amount (ng/μg protein) (average ± SD) ([1]; 0.5 × 10^−6M, listed as menaquinone-7): significantly promotes production of type I collagen | Type I collagen amount (ng/μg protein) (average ± SD) ([1]; 1 × 10^−5M): 11.03 ± 0.23 ng/μg protein | Type I collagen amount (ng/μg protein) (average ± SD) ([1]; 1 × 10^−6M): 10.26 ± 0.44 ng/μg protein | production amount of collagen (relative value, no sample = 100, per unit amount of protein) [1]: significantly increased | Type I collagen amount (ng/μg protein) (average ± SD) ([1]; 3 × 10^−6M): 10.41 ± 0.49 ng/μg protein | menaquinone-7 amount necessary for promoting collagen production ([1]; conversion of 0.5×10^−6 M): 325 ng/g | menaquinone-7 amount necessary for promoting collagen production ([1]; human dermal fibroblasts, lowest concentration tested): 500 nM | MK-7 concentration (ng/g) in skin [2]: 427 ± 243 ng/g | Type I collagen amount (μg/mg wet skin weight) (average ± SD) (skin collagen; MK7 4.54 μg/g feed): 40.97 ± 6.69 μg/mg wet skin weight | Rate of increase of collagen (%) (skin collagen; MK7 4.54 μg/g feed): 6.6% | Type I collagen amount (μg/mg wet skin weight) (average ± SD) (skin collagen; MK7 15.0 μg/g feed): 43.33 ± 2.42 μg/mg wet skin weight | Rate of increase of collagen (%) (skin collagen; MK7 15.0 μg/g feed): 12.8% | Rate of increase of collagen (%) (skin collagen; MK7 45.4 μg/g feed): 17.6% | amount of collagen in skin, dose dependence (skin collagen; oral administration, 4.54 to 45.4 μg/g feed): tendency of dose-dependently increasing the amount of collagen

CC1=C(C/C=C(\C)CCC[C@H](C)CCC[C@H](C)CCCC(C)C)C(=O)c2ccccc2C1=O [vitamin K1, reference compound]
production amount of collagen (relative value, no sample = 100, per unit amount of protein) [1]: only menaquinone-7 significantly increased
